Measurements from patent US20140135310A1, “SULPHONAMIDE DERIVATIVES OF ALICYCLIC AMINES FOR THE TREATMENT OF CENTRAL NERVOUS SYSTEM DISEASES” (Adamed Sp. z o.o., priority 2011, published 2014).
pKi: −log10 of the molar value.

Legend:
5-HT2A receptor = target: T1, 5-HT2A receptor (Homo sapiens, UniProt P28223); assay: Radioligand binding assay, serotoninergic 5-HT2A receptors; conditions: for inhibition at 1 µM / 5-HT2A [%]: binding assay result in %, Table 5a; for pKi: read-out: Inhibition constants Ki, 5-HT2A
T1 construct: purchased PerkinElmer
Outline: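 Radioligand competition binding with scintillation counting; nonspecific binding defined by excess unlabelled ligand. Data as percent inhibition of control specific binding. IC50 by Hill-equation fit of competition curves; Ki by Cheng-Prusoff, with radioligand Kd from Scatchard plot.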

M3 muscarinic receptors = target: T2, M3 muscarinic receptors (Homo sapiens, UniProt P20309); assay: Radioligand binding assay, muscarinic M3 receptors; conditions: test compound 1×10^−6 M
T2 construct: expressed in transfected cells; host or cells: CHO cells
Outline: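 Radioligand competition binding, detected by scintillation counting; non-specific binding defined with excess unlabelled ligand. Results given as % inhibition of control specific binding; IC50 from Hill-equation fit of competition curves, Ki via Cheng-Prusoff with radioligand KD from Scatchard plot.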

σ receptors = assay: Radioligand binding assay, σ receptors; conditions: rat cerebral cortex, [3H]DTG 8 nM
Outline: (§1)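 Values derive from radioligand displacement, with non-specific binding defined by excess cold ligand and detection by scintillation. Hill-fit IC50s were converted to Ki via Cheng-Prusoff using Scatchard-derived Kd; percent inhibition of control specific binding also reported.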

[1] = system: α1 adrenergic receptors (rat cerebral cortex); assay: Radioligand binding assay, adrenergic α1 receptors; conditions: test compound 1×10^−6 M
Outline: as §1

[2] = target: T3, 5-HT1A receptor (rat hippocampus) (Rattus norvegicus, UniProt P19327); assay: Radioligand binding assay, serotoninergic 5-HT1A receptors; conditions: binding assay result in %, Table 5a
T3 construct: hippocampus; from tissue; host or cells: rat hippocampus
T3 sequence (P19327 1-422): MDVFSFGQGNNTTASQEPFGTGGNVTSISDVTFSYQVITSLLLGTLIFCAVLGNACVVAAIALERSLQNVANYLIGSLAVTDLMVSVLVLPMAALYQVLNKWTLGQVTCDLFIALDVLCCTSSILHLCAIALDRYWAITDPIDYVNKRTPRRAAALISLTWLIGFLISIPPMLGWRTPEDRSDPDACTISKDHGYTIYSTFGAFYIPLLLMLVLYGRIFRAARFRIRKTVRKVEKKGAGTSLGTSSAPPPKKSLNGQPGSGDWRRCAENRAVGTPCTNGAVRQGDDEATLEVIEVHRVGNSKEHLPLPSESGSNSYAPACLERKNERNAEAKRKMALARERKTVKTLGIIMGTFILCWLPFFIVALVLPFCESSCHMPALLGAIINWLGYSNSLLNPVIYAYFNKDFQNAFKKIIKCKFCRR

[3] = target: dopaminergic receptors D2 (Homo sapiens, UniProt P14416); assay: Radioligand binding assay, dopaminergic D2 receptors; conditions: for inhibition at 1 µM / D2 [%]: binding assay, test compound 1×10^−6 M; for pKi: read-out: Inhibition constants Ki for D2 receptors, D2
Outline: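 Competition binding with scintillation counting of bound radioligand; specific binding taken as total minus non-specific binding measured with excess unlabelled ligand. IC50 obtained by Hill-equation non-linear regression of replicate-mean curves, then converted to Ki via Cheng–Prusoff using radioligand concentration and Scatchard-derived KD.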

5-HT2C receptor = target: T4, 5-HT2C receptor (Homo sapiens, UniProt P28335); assay: Radioligand binding assay, serotoninergic 5-HT2C receptors; conditions: test compound 1×10^−6 M
T4 construct: expressed in transfected cells; host or cells: HEK-293 cells
T4 sequence (P28335 33-458): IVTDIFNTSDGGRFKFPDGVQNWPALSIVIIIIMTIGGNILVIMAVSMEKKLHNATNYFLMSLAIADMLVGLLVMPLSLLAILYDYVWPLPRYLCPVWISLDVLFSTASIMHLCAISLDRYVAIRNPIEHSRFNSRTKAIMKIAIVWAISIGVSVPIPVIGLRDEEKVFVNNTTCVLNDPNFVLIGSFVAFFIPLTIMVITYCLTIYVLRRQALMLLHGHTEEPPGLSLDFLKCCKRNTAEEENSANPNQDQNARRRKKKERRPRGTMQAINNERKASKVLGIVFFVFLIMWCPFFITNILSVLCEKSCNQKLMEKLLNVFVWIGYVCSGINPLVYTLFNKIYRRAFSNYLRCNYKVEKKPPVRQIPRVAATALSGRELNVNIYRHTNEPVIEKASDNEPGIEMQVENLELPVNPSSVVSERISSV

[4] = target: T5, H1 histaminergic receptors (Homo sapiens, UniProt P35367); assay: Radioligand binding assay, histaminergic H1 receptors; conditions: human recombinant (HEK-293 cells), [3H]pyrilamine 1 nM
T5 construct: expressed in transfected cells; host or cells: HEK-293 cells
Outline: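 Competition binding at human H1 receptors; specific binding taken as total minus non-specific binding in excess unlabelled ligand, scintillation read-out. IC50 from Hill-equation fit of competition curves; Ki by Cheng-Prusoff using radioligand concentration and Kd (from Scatchard plot).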

[5] = target: dopaminergic receptors D3 (Homo sapiens, UniProt P35462); assay: Radioligand binding assay, dopaminergic D3 receptors; conditions: test compound 1×10^−6 M
Outline: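 Competition radioligand binding at human D2, D3 and D4.4 receptors, detected by scintillation counting; nonspecific binding defined with excess unlabelled ligand. Results as percent inhibition of control specific binding; IC50 by Hill-equation nonlinear regression; Ki via Cheng-Prusoff, with radioligand KD from Scatchard plot.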

T1 sequence (P28223 whole entry): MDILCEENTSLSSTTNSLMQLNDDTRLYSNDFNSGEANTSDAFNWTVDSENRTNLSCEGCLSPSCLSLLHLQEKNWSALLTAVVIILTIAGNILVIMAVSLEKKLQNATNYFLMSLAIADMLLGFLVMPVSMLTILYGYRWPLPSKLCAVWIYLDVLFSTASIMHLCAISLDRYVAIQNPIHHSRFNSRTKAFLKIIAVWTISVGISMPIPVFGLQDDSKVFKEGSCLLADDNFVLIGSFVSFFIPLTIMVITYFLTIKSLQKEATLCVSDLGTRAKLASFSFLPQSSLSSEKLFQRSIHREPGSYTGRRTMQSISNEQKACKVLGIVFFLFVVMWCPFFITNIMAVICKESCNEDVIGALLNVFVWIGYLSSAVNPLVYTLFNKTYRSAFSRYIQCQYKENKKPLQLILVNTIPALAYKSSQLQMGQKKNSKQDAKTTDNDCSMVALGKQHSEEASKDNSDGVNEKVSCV
T2 sequence (P20309 whole entry): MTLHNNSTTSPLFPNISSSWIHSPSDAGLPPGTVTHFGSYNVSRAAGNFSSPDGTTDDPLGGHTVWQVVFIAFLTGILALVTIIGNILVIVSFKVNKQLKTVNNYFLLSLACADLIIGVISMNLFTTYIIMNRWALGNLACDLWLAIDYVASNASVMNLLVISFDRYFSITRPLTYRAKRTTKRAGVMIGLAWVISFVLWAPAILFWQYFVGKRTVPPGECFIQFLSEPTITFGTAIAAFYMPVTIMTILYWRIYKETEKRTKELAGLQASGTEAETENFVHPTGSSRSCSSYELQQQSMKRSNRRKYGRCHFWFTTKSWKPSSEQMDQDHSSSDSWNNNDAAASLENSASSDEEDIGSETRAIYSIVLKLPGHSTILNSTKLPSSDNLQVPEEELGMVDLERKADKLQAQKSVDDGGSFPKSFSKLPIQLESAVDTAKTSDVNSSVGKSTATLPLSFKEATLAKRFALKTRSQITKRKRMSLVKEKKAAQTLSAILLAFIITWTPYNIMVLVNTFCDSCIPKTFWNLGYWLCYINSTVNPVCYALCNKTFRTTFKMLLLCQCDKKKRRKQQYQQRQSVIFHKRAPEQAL
dopaminergic receptors D2, sequence (P14416 whole entry): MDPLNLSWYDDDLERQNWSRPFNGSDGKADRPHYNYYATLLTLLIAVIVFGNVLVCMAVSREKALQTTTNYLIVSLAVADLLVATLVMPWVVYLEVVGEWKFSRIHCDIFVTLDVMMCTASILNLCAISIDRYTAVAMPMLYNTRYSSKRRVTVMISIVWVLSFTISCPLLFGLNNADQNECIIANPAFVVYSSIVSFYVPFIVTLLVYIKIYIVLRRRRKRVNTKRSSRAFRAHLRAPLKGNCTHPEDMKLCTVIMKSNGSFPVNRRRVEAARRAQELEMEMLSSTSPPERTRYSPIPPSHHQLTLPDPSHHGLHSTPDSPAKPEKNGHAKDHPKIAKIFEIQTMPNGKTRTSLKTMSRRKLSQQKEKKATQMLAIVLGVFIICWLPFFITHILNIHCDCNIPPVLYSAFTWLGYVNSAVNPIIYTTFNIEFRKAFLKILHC
T5 sequence (P35367 whole entry): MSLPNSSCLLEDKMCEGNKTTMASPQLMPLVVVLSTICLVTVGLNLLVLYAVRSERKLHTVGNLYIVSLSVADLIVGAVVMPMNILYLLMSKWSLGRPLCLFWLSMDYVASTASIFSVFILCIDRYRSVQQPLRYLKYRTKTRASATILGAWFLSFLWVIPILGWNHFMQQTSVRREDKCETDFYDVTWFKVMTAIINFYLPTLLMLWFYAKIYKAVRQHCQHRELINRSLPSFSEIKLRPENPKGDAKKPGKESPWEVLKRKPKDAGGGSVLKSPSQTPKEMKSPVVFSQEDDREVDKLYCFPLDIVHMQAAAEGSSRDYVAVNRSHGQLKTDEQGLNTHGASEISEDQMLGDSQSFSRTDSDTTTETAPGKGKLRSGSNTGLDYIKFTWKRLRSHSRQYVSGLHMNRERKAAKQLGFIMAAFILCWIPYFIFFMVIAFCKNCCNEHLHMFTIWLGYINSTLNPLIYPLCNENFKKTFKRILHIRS
dopaminergic receptors D3, sequence (P35462 whole entry): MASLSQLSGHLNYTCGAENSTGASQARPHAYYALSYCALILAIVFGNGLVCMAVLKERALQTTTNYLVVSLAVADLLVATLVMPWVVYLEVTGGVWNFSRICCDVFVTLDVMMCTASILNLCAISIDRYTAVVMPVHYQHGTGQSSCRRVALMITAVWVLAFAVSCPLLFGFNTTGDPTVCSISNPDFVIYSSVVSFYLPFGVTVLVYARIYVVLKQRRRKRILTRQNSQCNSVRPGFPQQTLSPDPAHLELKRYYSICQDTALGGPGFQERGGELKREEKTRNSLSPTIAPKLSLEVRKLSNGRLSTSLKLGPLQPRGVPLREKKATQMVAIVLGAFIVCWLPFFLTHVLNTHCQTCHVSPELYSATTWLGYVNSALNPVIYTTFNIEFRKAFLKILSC

SMILES	inhibition at 1 µM (5-HT2A receptor) [%]	inhibition at 1 µM (M3 muscarinic receptors) [%]	σ [%] (σ receptors)	α1 [%] [1] [%]	inhibition at 1 µM [2] [%]	inhibition at 1 µM [3] [%]	inhibition at 1 µM (5-HT2C receptor) [%]	inhibition at 1 µM [4] [%]	inhibition at 1 µM [5] [%]	pKi (5-HT2A receptor)	pKi [3]	5-HT2A [%] (5-HT2A receptor)	M3 [%] (M3 muscarinic receptors)	5-HT1A [%] [2] [%]	D2 [%] [3] [%]	5-HT2C [%] (5-HT2C receptor)	H1 [%] [4] [%]	D3 [%] [5] [%]
O=S(=O)(NC1CCN(CCCc2c[nH]c3ccc(Cl)cc23)C1)c1cccc(Cl)c1 (stereo not drawn) [Compound 84, 3-Chloro-N-[1-[3-(5-chloro-1H-indol-3-yl)propyl]pyrrolidin-3-yl]benzenesulphonamide]	78	3	59	51	99	89	88	79	99									
Cc1cc(S(=O)(=O)NC2CCN(CCCc3noc4cc(F)ccc34)C2)c(C)s1 (stereo not drawn) [Compound 221, N-[1-[3-(6-Fluoro-1,2-benzoxazol-3-yl)propyl]pyrrolidin-3-yl]-2,5-dimethyl-thiophene-3-sulphonamide]	101	12	83	85	67	97	81	66	92									
Cc1cccc(S(=O)(=O)NC2CN(CCOc3cccc4[nH]ccc34)C2)c1 [Compound 48, N-[1-[2-(1H-Indol-4-yloxy)ethyl]azetidin-3-yl]-3-methyl-benzenesulphonamide]	88	1	18	87	100	84	32	21	104									
COc1ccc2cc(S(=O)(=O)N[C@@H]3CCN(CCCc4noc5cc(F)ccc45)C3)ccc2c1 [Compound 230, N-[(3R)-1-[3-(6-Fluoro-1,2-benzoxazol-3-yl)propyl]pyrrolidin-3-yl]-6-methoxy-naphthalene-2-sulphonamide]		15	90	83	77	99	91	71	99	9.40	8.96							
O=S(=O)(N[C@H]1CCN(CCCc2noc3cc(F)ccc23)C1)c1cc2ccccc2o1 [Compound 215, N-[(3S)-1-[3-(6-Fluoro-1,2-benzoxazol-3-yl)propyl]pyrrolidin-3-yl]benzo-furan-2-sulphonamide]		39	81	89	52	97	74	50	85	8.92	8.52							
O=S(=O)(NCC1CCN(CCCc2noc3cc(F)ccc23)C1)c1ccc2ccccc2c1 (stereo not drawn) [Compound 240, N-[[1-[3-(6-Fluoro-1,2-benzoxazol-3-yl)propyl]pyrrolidin-3-yl]methyl]-naphthalene-2-sulphonamide]	99	21	92	86	30	95	81	55	75									
CC1(C)Cc2cccc(OCCN3CCC(NS(=O)(=O)c4ccc5ccccc5c4)CC3)c2O1 [Compound 110, N-[1-[2-[(2,2-Dimethyl-3H-benzofuran-7-yl)oxy]ethyl]-4-piperidine]naphthalene-2-sulphonamide]			56	45								91	−7	95	74	85	52	73
O=S(=O)(NC1CN(CCOc2cccc3c2OCCO3)C1)c1cccc(F)c1 [Compound 89, N-[1-[2-(2,3-Dihydro-1,4-benzodioxan-8-yloxy)ethyl]azetidin-3-yl]-3-fluoro-benzenesulphonamide]			24	45								74	−6	98	24	53	3	23
O=S(=O)(NCC1CN(CCCc2noc3cc(F)ccc23)C1)c1ccc(-c2ccccc2)cc1 [Compound 135, N-[[1-[3-(6-Fluoro-1,2-benzoxazol-3-yl)propyl]azetidin-3-yl]methyl]-4-phenyl-benzenesulphonamide]	99	19	94	88	77	92	86	79	94									
O=S(=O)(N[C@H]1CCN(CCCc2noc3cc(F)ccc23)C1)c1csc2ccccc12 [Compound 225, N-[(3S)-1-[3-(6-Fluoro-1,2-benzoxazol-3-yl)propyl]pyrrolidin-3-yl]benzothiophene-3-sulphonamide]		23	96	93	62	97	72	57	84	9.05	8.04							
Cc1c(S(=O)(=O)NC2CCN(CCCc3noc4cc(F)ccc34)C2)sc2ccc(F)cc12 (stereo not drawn) [Compound 28, 5-Fluoro-N-[1-[3-(6-fluoro-1,2-benzoxazol-3-yl)propyl]pyrrolidin-3-yl]-3-methyl-benzothiophene-2-sulphonamide]	101	13	70	70	61	97	72	63	96									
